Test systems include CAKI-1; HCT-116; HCT-15; HL-60; HT-29; LXFL 529; MDA-MB-231; MOLT-4; Malme-3M; NCI-H226; NCI/ADR-RES; OVCAR-3; OVCAR-5; OVCAR-8; RPMI-8226; SF-295; SK-OV-3; SW-620; U-251; UO-31.
Holding throughout (experiment): DTP human tumour cell line panel, 48 h

Experimental findings from ChEMBL document CHEMBL1201862, “PubChem BioAssay data set” (2004) are described below.

Molecules are shown by their SMILES.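 A five-concentration, 48-hour dose response in 96-well plates underlies each endpoint, interpolated linearly between surrounding concentrations. Abbreviation: GI50, concentration required for 50% inhibition of growth.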 Active and inactive are the calls of the source. Rule as the data show it: active = GI50 up to about 1.1 µM and inactive = higher.

On to `O=S1(=O)CCC2=CC(C(F)(F)F)=CC(C(F)(F)F)=CN21`, for which the GI50 (in general, the concentration at which growth is held to half of that of the control) is 0.56 µM (active) in the assay on CAKI-1; 0.245 µM (active) in the assay on HCT-116; 0.485 µM in the assay with HCT-15; 0.168 µM (active) with HL-60; 1.53 µM (inactive) in the assay with HT-29; 0.435 µM (active) in the assay on LXFL 529. The GI50 with MDA-MB-231 was 2.78 µM (inactive); in the assay on MOLT-4 it was 0.243 µM (active); with Malme-3M, 0.733 µM (active); in the assay with NCI-H226, 2.08 µM (inactive); in the assay with NCI/ADR-RES, 1.09 µM (active); in the assay on OVCAR-3, 1.12 µM (active). The GI50 in the assay with OVCAR-5 was 2.11 µM (inactive); with OVCAR-8 it was 0.308 µM (active); with RPMI-8226, 0.535 µM (active); in the assay on SF-295 it was 2.12 µM (inactive); with SK-OV-3, 3.86 µM (inactive); with SW-620, 0.302 µM (active). The GI50 was 1.83 µM (inactive) in the assay on U-251 and 0.805 µM (active) in the assay with UO-31.
